ChEMBL document CHEMBL1201862, “PubChem BioAssay data set” (2004)
“And” between values parts separate entries of the source, which are not always exact repeats. Identical values can stand only once.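 96-well plates; 48 h exposure; 5 concentrations. Endpoints by linear interpolation between flanking doses. Not reached: highest tested concentration assigned. Abbreviation: GI50, concentration required for 50% inhibition of growth.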 The source made the active and inactive calls. No stated cut-off is given here; in the data, active = GI50 up to about 1.1 µM and inactive = higher.

What was measured:
Assay in all cases: NCI tumour cell line growth inhibition, 48 h
A549 = test system: A549
BT-549 = test system: BT-549
CAKI-1 = test system: CAKI-1
COLO 205 = test system: COLO 205
EKVX = test system: EKVX
HCC 2998 = test system: HCC 2998
HOP-62 = test system: HOP-62
HT-29 = test system: HT-29
Hs-578T = test system: Hs-578T
IGROV-1 = test system: IGROV-1
KM12 = test system: KM12
LOX IMVI = test system: LOX IMVI
MCF7 = test system: MCF7
MDA-MB-231 = test system: MDA-MB-231
MDA-N = test system: MDA-N
MOLT-4 = test system: MOLT-4
Malme-3M = test system: Malme-3M
NCI-H226 = test system: NCI-H226
NCI-H460 = test system: NCI-H460
NCI-H522 = test system: NCI-H522
OVCAR-5 = test system: OVCAR-5
PC-3 = test system: PC-3
RPMI-8226 = test system: RPMI-8226
SF-295 = test system: SF-295
SF-539 = test system: SF-539
SK-OV-3 = test system: SK-OV-3
SN12C = test system: SN12C
SNB-19 = test system: SNB-19
SR = test system: SR
SW-620 = test system: SW-620
T47D = test system: T47D
UACC-62 = test system: UACC-62
UO-31 = test system: UO-31
786-0 = test system: 786-0
A498 = test system: A498
ACHN = test system: ACHN
CCRF-CEM = test system: CCRF-CEM
DU-145 = test system: DU-145
HCT-116 = test system: HCT-116
HCT-15 = test system: HCT-15
HL-60 = test system: HL-60
HOP-92 = test system: HOP-92
K562 = test system: K562
M14 = test system: M14
MDA-MB-435 = test system: MDA-MB-435
NCI-H23 = test system: NCI-H23
NCI/ADR-RES = test system: NCI/ADR-RES
OVCAR-3 = test system: OVCAR-3
OVCAR-4 = test system: OVCAR-4
OVCAR-8 = test system: OVCAR-8
RXF 393 = test system: RXF 393
SF-268 = test system: SF-268
SK-MEL-28 = test system: SK-MEL-28
SK-MEL-2 = test system: SK-MEL-2
SK-MEL-5 = test system: SK-MEL-5
SNB-75 = test system: SNB-75
TK-10 = test system: TK-10
U-251 = test system: U-251
UACC-257 = test system: UACC-257

Question: COc1ccc(-c2c3c(n(C4OC(COC(C)=O)C(OC(C)=O)C(OC(C)=O)C4OC(C)=O)c(=S)c2C#N)CC(C)(C)CC3=O)cc1 (stereo unspecified) was tested. Which GI50 (A549) did it give?
Answer: 65.5 µM (inactive)

Question: What about the GI50 (BT-549) of the same compound?
Answer: 62.1 µM (inactive) and 32.1 µM (inactive)

Question: What about the GI50 (CAKI-1) of the same compound?
Answer: 59.2 µM (inactive)

Question: And the GI50 (COLO 205)?
Answer: > 100 µM (inactive) and 50.4 µM (inactive)

Question: What about the GI50 (EKVX) of the same compound?
Answer: 26.6 µM (inactive)

Question: And the GI50 (HCC 2998)?
Answer: 47.6 µM (inactive) and 61.1 µM (inactive)

Question: And the GI50 (HOP-62)?
Answer: > 100 µM (inactive)

Question: And the GI50 (HT-29)?
Answer: 33.1 µM (inactive) and 58.2 µM (inactive)

Question: What about the GI50 (Hs-578T) of the same compound?
Answer: 40.4 µM (inactive) and 36.2 µM (inactive)

Question: And the GI50 (IGROV-1)?
Answer: > 100 µM (inactive) and 74.5 µM (inactive)

Question: And the GI50 (KM12)?
Answer: 74.8 µM (inactive)

Question: What about the GI50 (LOX IMVI) of the same compound?
Answer: 27.5 µM (inactive) and 29.3 µM (inactive)

Question: What about the GI50 (MCF7) of the same compound?
Answer: 57.3 µM (inactive) and 28.8 µM (inactive)

Question: And the GI50 (MDA-MB-231)?
Answer: 37.9 µM (inactive) and 35.6 µM (inactive)

Question: What about the GI50 (MDA-N) of the same compound?
Answer: 33 µM (inactive) and 65.8 µM (inactive)

Question: What about the GI50 (MOLT-4) of the same compound?
Answer: 20.7 µM (inactive) and 27.8 µM (inactive)

Question: And the GI50 (Malme-3M)?
Answer: > 100 µM (inactive) and 56.2 µM (inactive)

Question: And the GI50 (NCI-H226)?
Answer: 55.5 µM (inactive) and 44.8 µM (inactive)

Question: And the GI50 (NCI-H460)?
Answer: > 100 µM (inactive) and 61.4 µM (inactive)

Question: What about the GI50 (NCI-H522) of the same compound?
Answer: 43.5 µM (inactive) and 22.6 µM (inactive)

Question: What about the GI50 (OVCAR-5) of the same compound?
Answer: 61 µM (inactive)

Question: And the GI50 (PC-3)?
Answer: 59.6 µM (inactive) and 34.4 µM (inactive)

Question: What about the GI50 (RPMI-8226) of the same compound?
Answer: 32.6 µM (inactive) and 26.5 µM (inactive)

Question: And the GI50 (SF-295)?
Answer: 78 µM (inactive)

Question: And the GI50 (SF-539)?
Answer: 35.2 µM (inactive) and 22.8 µM (inactive)

Question: What about the GI50 (SK-OV-3) of the same compound?
Answer: 96.2 µM (inactive)

Question: What about the GI50 (SN12C) of the same compound?
Answer: > 100 µM (inactive) and 55.3 µM (inactive)

Question: And the GI50 (SNB-19)?
Answer: 97.3 µM (inactive)

Question: And the GI50 (SR)?
Answer: 24.9 µM (inactive) and 37.3 µM (inactive)

Question: And the GI50 (SW-620)?
Answer: 37.1 µM (inactive)

Question: What about the GI50 (T47D) of the same compound?
Answer: 40.9 µM (inactive) and 64.1 µM (inactive)

Question: And the GI50 (UACC-62)?
Answer: 30.3 µM (inactive) and 33 µM (inactive)

Question: And the GI50 (UO-31)?
Answer: > 100 µM (inactive) and 55.3 µM (inactive)

Question: What does the source list for CC1C=CN(N(C)C)C2=C1C(=O)c1cnccc1C2=O (stereo unspecified)?
Answer: GI50 (786-0): 0.195 µM (active); GI50 (A498): 1.29 µM (inactive); GI50 (A549): 0.331 µM (active); GI50 (ACHN): 251 nM (active); GI50 (BT-549): 355 nM (active); GI50 (CAKI-1): 0.108 µM (active); GI50 (CCRF-CEM): 2.09 µM (inactive); GI50 (COLO 205): 1.12 µM (inactive); GI50 (DU-145): 0.372 µM (active); GI50 (EKVX): 0.59 µM (active); GI50 (HCC 2998): 589 nM (active); GI50 (HCT-116): 306 nM (active); GI50 (HCT-15): 0.231 µM; GI50 (HL-60): 1.47 µM (inactive); GI50 (HOP-62): 0.349 µM (active); GI50 (HOP-92): 2.07 µM (inactive); GI50 (HT-29): 617 nM (active); GI50 (Hs-578T): 693 nM (active); GI50 (IGROV-1): 244 nM (active); GI50 (K562): 0.205 µM (active); GI50 (KM12): 1.24 µM (inactive); GI50 (LOX IMVI): 129 nM (active); GI50 (M14): 424 nM (active); GI50 (MCF7): 274 nM (active); GI50 (MDA-MB-435): 186 nM (active); GI50 (MDA-N): 133 nM (active); GI50 (MOLT-4): 1.76 µM (inactive); GI50 (Malme-3M): 334 nM (active); GI50 (NCI-H226): 508 nM (active); GI50 (NCI-H23): 261 nM (active); GI50 (NCI-H460): 148 nM (active); GI50 (NCI-H522): 170 nM (active); GI50 (NCI/ADR-RES): 0.927 µM (active); GI50 (OVCAR-3): 792 nM (active); GI50 (OVCAR-4): 662 nM (active); GI50 (OVCAR-5): 1.37 µM (inactive); GI50 (OVCAR-8): 0.883 µM (active); GI50 (PC-3): 1.49 µM (inactive); GI50 (RPMI-8226): 531 nM (active); GI50 (RXF 393): 0.408 µM (active); GI50 (SF-268): 0.975 µM (active); GI50 (SF-295): 0.676 µM (active); GI50 (SF-539): 293 nM (active); GI50 (SK-MEL-28): 453 nM (active); GI50 (SK-MEL-2): 1.63 µM (inactive); GI50 (SK-MEL-5): 0.274 µM (active); GI50 (SK-OV-3): 0.682 µM (active); GI50 (SN12C): 168 nM (active); GI50 (SNB-19): 0.832 µM (active); GI50 (SNB-75): 315 nM (active); GI50 (SR): 15.6 nM (active); GI50 (SW-620): 0.395 µM (active); GI50 (T47D): 1.83 µM (inactive); GI50 (TK-10): 513 nM (active); GI50 (U-251): 0.417 µM (active); GI50 (UACC-257): 212 nM (active); GI50 (UACC-62): 167 nM (active); GI50 (UO-31): 167 nM (active)

Question: What does the source list for Cc1nc2c(Br)cc(Br)cc2c(=O)n1-c1ccccc1NC1OCC(O)C(O)C1O (stereo unspecified)?
Answer: GI50 (ACHN): 17.2 µM (inactive) and 32.3 µM (inactive); GI50 (BT-549): 26.5 µM (inactive) and 29.3 µM (inactive); GI50 (CAKI-1): 45.2 µM (inactive) and 28.4 µM (inactive); GI50 (CCRF-CEM): 21.5 µM (inactive) and 11.5 µM (inactive); GI50 (COLO 205): 18.6 µM (inactive) and 17.6 µM (inactive); GI50 (EKVX): 48.6 µM (inactive) and 39 µM (inactive); GI50 (HCC 2998): 33700 nM (inactive); GI50 (HCT-116): 24.7 µM (inactive) and 16 µM (inactive); GI50 (HCT-15): 48.8 µM and 41.1 µM; GI50 (HOP-92): 19.6 µM (inactive) and 35.8 µM (inactive); GI50 (HT-29): 24.9 µM (inactive) and 15.3 µM (inactive); GI50 (Hs-578T): > 25.5 µM (inactive) and 39.7 µM (inactive); GI50 (IGROV-1): 41.4 µM (inactive) and 21.2 µM (inactive); GI50 (KM12): 24.7 µM (inactive); GI50 (LOX IMVI): 14.6 µM (inactive) and 21.6 µM (inactive); GI50 (M14): 21.8 µM (inactive) and 32.7 µM (inactive); GI50 (MDA-MB-231): 27.2 µM (inactive) and 45.7 µM (inactive); GI50 (MDA-MB-435): 42.1 µM (inactive) and 39.4 µM (inactive); GI50 (MDA-N): 33.7 µM (inactive) and 41.4 µM (inactive); GI50 (Malme-3M): 28.3 µM (inactive) and 37.8 µM (inactive); GI50 (NCI-H23): 20.7 µM (inactive) and 38 µM (inactive); GI50 (NCI-H522): 19.7 µM (inactive) and 17.4 µM (inactive); GI50 (OVCAR-3): 24.3 µM (inactive) and 20.9 µM (inactive); GI50 (OVCAR-4): 24.1 µM (inactive) and 39.1 µM (inactive); GI50 (OVCAR-5): 44.2 µM (inactive) and 42.7 µM (inactive); GI50 (PC-3): 33.3 µM (inactive) and 46 µM (inactive); GI50 (SK-MEL-28): 69.2 µM (inactive) and 74.3 µM (inactive); GI50 (SK-MEL-2): 38.8 µM (inactive) and 34.3 µM (inactive); GI50 (SNB-19): 40.8 µM (inactive) and 22.9 µM (inactive); GI50 (SNB-75): 18.8 µM (inactive) and 33 µM (inactive); GI50 (SW-620): 28.6 µM (inactive); GI50 (T47D): 44 µM (inactive) and 30.5 µM (inactive); GI50 (TK-10): 23.4 µM (inactive) and 40.9 µM (inactive); GI50 (UACC-257): 23.7 µM (inactive) and 44.8 µM (inactive); GI50 (UO-31): 42.2 µM (inactive) and 30.5 µM (inactive)
